The record followed here is ChEMBL document CHEMBL4680309, “Discovery of a potent β-catenin destabilizer for overcoming the resistance of 5-fluorouracil in colorectal cancer” (Bioorg Med Chem, 2021).

Structures are written as SMILES. Activity calls are given as the source filed them. No cut-off for these calls is given here.

Test [1] concerns HCT-8. In words: Cytotoxicity against human HCT-8 cells assessed as reduction in cell viability at 100 uM incubated for 72 hrs by SRB assay. Format: functional, cell-based.
Test [2] has as its system HCT-116. In words: Cytotoxicity against human HCT-116 cells assessed as reduction in cell viability incubated for 72 hrs by SRB assay. The following applies: HCT-116, 72 h. On the technique in general: In SRB staining, fixed cells bind dye roughly in proportion to their protein.
Test [3] in a line: Resistance index, ratio of IC50 for cytotoxicity against human HCT-116 cells harboring p53 knock out gene to IC50 for cytotoxicity against human HCT-116 cells. Type of test: functional.
Test [4] is described as follows: Resistance index, ratio of IC50 for cytotoxicity against 5-FU resistant human HCT-8 cells to IC50 for cytotoxicity against human HCT-8 cells. Type of test: functional.
Test [5] deals with HCT-8. Kind of test: Cytotoxicity against 5-FU resistant human HCT-8 cells assessed as reduction in cell viability incubated for 72 hrs by SRB assay. Format: functional, cell-based. The following applies: HCT-8, 72 h.
The test system of test [6] is HCT-116. In words: Cytotoxicity against human HCT-116 cells harboring p53 knock out gene assessed as reduction in cell viability incubated for 72 hrs by SRB assay. The settings on record: HCT-116, 72 h. Type of test: functional, cell-based.
Test [7] concerns HCT-8. In words: Cytotoxicity against human HCT-8 cells assessed as reduction in cell viability incubated for 72 hrs by SRB assay. The settings on record: HCT-8, 72 h.
For test [8], the target named is T1, Catenin beta-1 (Homo sapiens) (UniProt P35222).
T1 sequence (whole entry): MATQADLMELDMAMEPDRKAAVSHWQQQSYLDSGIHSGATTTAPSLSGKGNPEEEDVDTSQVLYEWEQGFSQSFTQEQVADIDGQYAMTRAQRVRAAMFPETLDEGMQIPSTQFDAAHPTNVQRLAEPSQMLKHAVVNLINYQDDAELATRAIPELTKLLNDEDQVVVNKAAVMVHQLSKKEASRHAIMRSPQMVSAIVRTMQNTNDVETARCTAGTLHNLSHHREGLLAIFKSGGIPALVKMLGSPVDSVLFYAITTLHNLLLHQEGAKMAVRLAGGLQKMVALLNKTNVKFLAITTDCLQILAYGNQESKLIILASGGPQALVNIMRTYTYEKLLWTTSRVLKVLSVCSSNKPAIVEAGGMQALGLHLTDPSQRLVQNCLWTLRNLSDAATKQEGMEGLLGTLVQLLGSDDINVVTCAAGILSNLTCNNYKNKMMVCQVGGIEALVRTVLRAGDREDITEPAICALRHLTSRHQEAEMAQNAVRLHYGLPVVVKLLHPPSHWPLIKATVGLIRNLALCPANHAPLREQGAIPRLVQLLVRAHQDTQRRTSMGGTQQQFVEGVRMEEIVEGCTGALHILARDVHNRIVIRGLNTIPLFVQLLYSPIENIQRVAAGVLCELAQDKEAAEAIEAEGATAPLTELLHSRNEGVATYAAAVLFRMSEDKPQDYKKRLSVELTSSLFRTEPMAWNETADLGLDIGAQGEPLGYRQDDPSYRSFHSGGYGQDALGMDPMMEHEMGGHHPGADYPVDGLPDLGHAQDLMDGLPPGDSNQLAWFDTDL
In words: Degradation of beta-catenin (unknown origin) transfected in human HCT-8 cells assessed as reduction in survivin mRNA expression at 50 uM incubated for 24 hrs by qRT-PCR analysis. Type of test: cell-based. (In general: In qPCR the cycle at which signal appears reflects the starting amount.)

The subject of test [9] is HCT-8. In words: Inhibition of Wnt/beta-Catenin signaling in 5-FU resistant human HCT-8 cells assessed as reduction in beta-catenin level incubated for 24 hrs by Western blot analysis. Type of test: cell-based. The following applies: dose 20-100 µM. On the technique in general: Immunoblotting shows a protein as a band on a membrane.
Test [10] relates to HCT-8. In words: Inhibition of Wnt/beta-Catenin signaling in 5-FU resistant human HCT-8 cells assessed as reduction in survivin expression incubated for 24 hrs by Western blot analysis. Type of test: cell-based. The settings on record: dose 20-100 µM.
In test [11] the test system is HCT-8. Kind of test: Inhibition of Wnt/beta-Catenin signaling in human HCT-8 cells assessed as reduction in cyclin D1 expression incubated for 24 hrs by Western blot analysis. Type of test: cell-based. The following applies: dose 20-100 µM.
Test [12] relates to HCT-8. In words: Inhibition of Wnt/beta-Catenin signaling in 5-FU resistant human HCT-8 cells assessed as reduction in cyclin D1 expression incubated for 24 hrs by Western blot analysis. Format: cell-based. The following applies: dose 20-100 µM.
The next test deals with HT-29. In words: Cytotoxicity against human HT-29 cells assessed as reduction in cell viability incubated for 72 hrs by SRB assay. The settings on record: HT-29, 72 h.
Test [13] concerns the target T1, Catenin beta-1 (Homo sapiens). Kind of test: Degradation of beta-catenin (unknown origin) transfected in 5-FU resistant human HCT-8 cells assessed as reduction in cyclin D1 mRNA expression at 50 uM incubated for 24 hrs by qRT-PCR analysis. Format: cell-based.
The target is the same in test [14]. Kind of test: Degradation of beta-catenin (unknown origin) transfected in 5-FU resistant human HCT-8 cells assessed as reduction in survivin mRNA expression at 50 uM incubated for 24 hrs by qRT-PCR analysis. Type of test: cell-based.
For test [15] the target is unchanged. Kind of test: Degradation of beta-Catenin in human HCT-8 cells assessed as reduction in Wnt-3a-induced beta-Catenin level at 50 to 100 uM incubated for 24 hrs by Western blot analysis. Format: cell-based. The settings on record: dose 50-100 µM.
In test [16] the test system is HCT-8. In words: Inhibition of Wnt/beta-Catenin signaling in human HCT-8 cells assessed as reduction in c-myc expression incubated for 24 hrs by Western blot analysis. Format: cell-based. The following applies: dose 20-100 µM.
In test [17] the test system is HCT-8. Kind of test: Effect on beta-Catenin mRNA expression in 5-FU resistant human HCT-8 cells at 50 to 100 uM incubated for 24 hrs by qRT-PCR analysis. Format: functional, cell-based. The following applies: dose 50-100 µM.
In test [18] the test system is HCT-8. In words: Effect on beta-Catenin mRNA expression in human HCT-8 cells at 100 uM incubated for 24 hrs by qRT-PCR analysis. Type of test: functional, cell-based.
The subject of test [19] is HCT-8. In words: Inhibition of Wnt/beta-Catenin signaling in human HCT-8 cells assessed as reduction in beta-catenin level incubated for 24 hrs by Western blot analysis. Format: cell-based. The settings on record: dose 20-100 µM.
Test [20] concerns HCT-8. In words: Inhibition of Wnt/beta-Catenin signaling in 5-FU resistant human HCT-8 cells assessed as reduction in c-myc expression incubated for 24 hrs by Western blot analysis. Format: cell-based. The following applies: dose 20-100 µM.
Test [21] deals with T1, Catenin beta-1 (Homo sapiens). In words: Degradation of beta-catenin (unknown origin) transfected in human HCT-8 cells assessed as reduction in cyclin D1 mRNA expression at 50 uM incubated for 24 hrs by qRT-PCR analysis. Format: cell-based.
A further test has as its system LoVo. Kind of test: Cytotoxicity against human LoVo cells assessed as reduction in cell viability incubated for 72 hrs by SRB assay.
In test [22] the target is T1, Catenin beta-1 (Homo sapiens). Kind of test: Degradation of beta-catenin (unknown origin) transfected in 5-FU resistant human HCT-8 cells assessed as reduction in c-myc mRNA expression at 50 uM incubated for 24 hrs by qRT-PCR analysis. Type of test: cell-based.
The target is the same in test [23]. Kind of test: Degradation of beta-catenin (unknown origin) transfected in human HCT-8 cells assessed as reduction in cell viability at 50 uM incubated for 24 hrs by SRB assay. Type of test: cell-based.
The target is the same in test [24]. In words: Degradation of beta-catenin (unknown origin) transfected in 5-FU resistant human HCT-8 cells assessed as reduction in cell viability at 50 uM incubated for 24 hrs by SRB assay. Format: cell-based.
The test system of test [25] is HCT-8. Kind of test: Effect on beta-Catenin mRNA expression in human HCT-8 cells at 50 uM incubated for 24 hrs by qRT-PCR analysis. Type of test: functional, cell-based.
For test [26], the target named is T1, Catenin beta-1 (Homo sapiens). Kind of test: Degradation of beta-catenin (unknown origin) transfected in human HCT-8 cells assessed as reduction in c-myc mRNA expression at 50 uM incubated for 24 hrs by qRT-PCR analysis. Type of test: cell-based.
Test [27] in a line: Cytotoxicity against human RKOE6 cells assessed as reduction in cell viability incubated for 72 hrs by SRB assay. The settings on record: RKOE6, 72 h.
Another test relates to SW480. In words: Cytotoxicity against human SW480 cells assessed as reduction in cell viability incubated for 72 hrs by SRB assay. The following applies: SW480, 72 h.
For test [28], the system named is HCT-8. In words: Inhibition of Wnt/beta-Catenin signaling in human HCT-8 cells assessed as reduction in survivin expression incubated for 24 hrs by Western blot analysis. Format: cell-based. The settings on record: dose 20-100 µM.

Consider `CC[C@H]1C(=O)O[C@@H]2CCCn3cccc3[C@H]21`, for which the inhibition entry with HCT-8 [1] was “inactive”.
Take `O=c1[nH]cc(F)c(=O)[nH]1` [FLUOROURACIL]: the IC50 (commonly the concentration at which inhibition is half-maximal) in the test with HCT-116 [2] was 1.7 µM; in the test with HCT-8 [5], 47 µM; in the test on HCT-116 [6], 4.3 µM; in the test with HCT-8 [7], 2.2 µM. For the same compound, the results for the “Ratio IC50” value in test [3] and in [4] were 2.5 and 21, respectively.
In the case of `CC[C@@H]1C(=O)O[C@@H]2CCCn3cccc3[C@@H]12`, in the test on HCT-8 [1], the inhibition entry was “inactive”.
Still for that read-out and setting: under `C=C1C(=O)O[C@@H]2CCCn3c(C=O)ccc3[C@@H]12` stands “inactive”; under `CCCCc1ccc2n1CCC[C@H]1OC(=O)[C@@H](C)[C@H]21`, “inactive”.
Consider `C=C1C(=O)O[C@@H]2CCCn3cccc3[C@@H]12`, for which the outcome (in test [8]; in [13]; in test [14]; in the test with HCT-8 [17]; in the test with HCT-8 [18]; in [21]) was inactive. The outcome in [22], in test [23], in [24] and in [26] was inactive. Moreover, in the test on HCT-8 [1], the inhibition result was “inactive”. Further, the inhibition entry in the test on HCT-8 [9], in the test with HCT-8 [10], in the test on HCT-8 [11], with HCT-8 [12], in the test with HCT-8 [16] and in the test on HCT-8 [19] was “Dose-dependent effect” each time. Also, the inhibition result in the test on HCT-8 [20] and in the test with HCT-8 [28] was “Dose-dependent effect” in each case. For the same compound, the IC50 with HT-29 is 8.52 µM; in the test with HCT-116 [2], 13 µM; in the test on LoVo, 10.2 µM; in [27], 7.93 µM; in the test with HCT-8 [5], 11 µM; in the test on HCT-116 [6], 14 µM. The IC50 in the test on SW480 was found to be 16.8 µM; in the test on HCT-8 [7], 11 µM. Further, the outcome (in test [15]; with HCT-8 [25]) was Active. Further, the “Ratio IC50” value in test [3] and in test [4] was 1 each time.
